The record followed here is PubChem BioAssay AID1259407 (Chemical Carcinogenesis Research Information System (CCRIS), 2018).

Activity calls are given as the source filed them. No rule for the calls is given here.

For this series, the system named is CCRIS mutagenicity, Ames/micronucleus/aberration tests. In words: CCRIS mutagenicity studies.

As for `O=C(/C=N/O)Nc1ccccc1`, the mutagenic call (Test System: AMES SALMONELLA TYPHIMURIUM, Strain/Indicator: TA98, Metabolic Activation: HAMSTER, LIVER, S-9, AROCLOR 1254, Method: STANDARD PLATE) was “inactive; negative”; the mutagenic call (Test System: AMES SALMONELLA TYPHIMURIUM, Strain/Indicator: TA98, Metabolic Activation: NONE, Method: STANDARD PLATE) is “inactive; negative”; the mutagenic call (Test System: AMES SALMONELLA TYPHIMURIUM, Strain/Indicator: TA98, Metabolic Activation: RAT, LIVER, S-9, AROCLOR 1254, Method: STANDARD PLATE) was “inactive; negative”; the mutagenic call (Test System: AMES SALMONELLA TYPHIMURIUM, Strain/Indicator: TA100, Metabolic Activation: HAMSTER, LIVER, S-9, AROCLOR 1254, Method: STANDARD PLATE) was “inactive; negative”; the mutagenic call (Test System: AMES SALMONELLA TYPHIMURIUM, Strain/Indicator: TA100, Metabolic Activation: NONE, Method: STANDARD PLATE) was “inactive; negative”; the mutagenic call (Test System: AMES SALMONELLA TYPHIMURIUM, Strain/Indicator: TA100, Metabolic Activation: RAT, LIVER, S-9, AROCLOR 1254, Method: STANDARD PLATE) is “inactive; negative”. Moreover, the mutagenic call is, setting by setting: (Test System: AMES SALMONELLA TYPHIMURIUM, Strain/Indicator: TA1535, Metabolic Activation: HAMSTER, LIVER, S-9, AROCLOR 1254, Method: STANDARD PLATE) “inactive; negative”; (Test System: AMES SALMONELLA TYPHIMURIUM, Strain/Indicator: TA1535, Metabolic Activation: NONE, Method: STANDARD PLATE) “inactive; negative”; (Test System: AMES SALMONELLA TYPHIMURIUM, Strain/Indicator: TA1535, Metabolic Activation: RAT, LIVER, S-9, AROCLOR 1254, Method: STANDARD PLATE) “inactive; negative”; (Test System: AMES SALMONELLA TYPHIMURIUM, Strain/Indicator: TA1537, Metabolic Activation: HAMSTER, LIVER, S-9, AROCLOR 1254, Method: STANDARD PLATE) “inactive; negative”; (Test System: AMES SALMONELLA TYPHIMURIUM, Strain/Indicator: TA1537, Metabolic Activation: NONE, Method: STANDARD PLATE) “inactive; negative”; (Test System: AMES SALMONELLA TYPHIMURIUM, Strain/Indicator: TA1537, Metabolic Activation: RAT, LIVER, S-9, AROCLOR 1254, Method: STANDARD PLATE) “inactive; negative”. The mutagenic call by setting is: (Test System: MOUSE LYMPHOMA, Strain/Indicator: L5178Y (TK+/TK-), Metabolic Activation: RAT, LIVER, S-9, AROCLOR 1254, Method: SUSPENSION/PLATE) “inactive; negative. reevaluation of results: negative”; (Test System: Mouse lymphoma, Strain/Indicator: L5178Y (tk+/tk-), Metabolic Activation: None, Method: Suspension/plate) “active; equivocal (previous evaluation: positive)”.

In the case of `CC(Cl)Cl`, the mutagenic call is “active; positive (structural changes)” (End Point: IN VIVO CHROMOSOMAL ABERRATIONS, Test System: BONE MARROW, Species: MOUSE, Strain/Sex: SWISS-WEBSTER/MALE, Route: INTRAPERITONEAL); “active; positive (dose-dependent)” (End Point: IN VIVO MICRONUCLEUS, Test System: BONE MARROW, Species: MOUSE, Strain/Sex: SWISS-WEBSTER/MALE, Route: INTRAPERITONEAL); “inactive; negative” (Test System: AMES SALMONELLA TYPHIMURIUM, Strain/Indicator: TA97, Metabolic Activation: HAMSTER, LIVER, S-9, AROCLOR 1254 (10%), Method: PREINCUBATION); “inactive; negative” (Test System: AMES SALMONELLA TYPHIMURIUM, Strain/Indicator: TA97, Metabolic Activation: HAMSTER, LIVER, S-9, AROCLOR 1254 (30%), Method: PREINCUBATION); “inactive; negative” (Test System: AMES SALMONELLA TYPHIMURIUM, Strain/Indicator: TA97, Metabolic Activation: NONE, Method: PREINCUBATION); “inactive; negative” (Test System: AMES SALMONELLA TYPHIMURIUM, Strain/Indicator: TA97, Metabolic Activation: RAT, LIVER, S-9, AROCLOR 1254 (10%), Method: PREINCUBATION). Besides, the mutagenic call was “inactive; negative” (Test System: AMES SALMONELLA TYPHIMURIUM, Strain/Indicator: TA97, Metabolic Activation: RAT, LIVER, S-9, AROCLOR 1254 (30%), Method: PREINCUBATION); “inactive; negative” (Test System: AMES SALMONELLA TYPHIMURIUM, Strain/Indicator: TA98, Metabolic Activation: HAMSTER, LIVER, S-9, AROCLOR 1254 (10%), Method: PREINCUBATION); “inactive; negative” (Test System: AMES SALMONELLA TYPHIMURIUM, Strain/Indicator: TA98, Metabolic Activation: HAMSTER, LIVER, S-9, AROCLOR 1254 (30%), Method: PREINCUBATION); “inactive; negative” (Test System: AMES SALMONELLA TYPHIMURIUM, Strain/Indicator: TA98, Metabolic Activation: NONE, Method: PREINCUBATION); “inactive; negative” (Test System: AMES SALMONELLA TYPHIMURIUM, Strain/Indicator: TA98, Metabolic Activation: RAT, LIVER, S-9, AROCLOR 1254 (10%), Method: PREINCUBATION); “inactive; negative” (Test System: AMES SALMONELLA TYPHIMURIUM, Strain/Indicator: TA98, Metabolic Activation: RAT, LIVER, S-9, AROCLOR 1254 (30%), Method: PREINCUBATION). Further, the mutagenic call was “inactive; negative” (Test System: AMES SALMONELLA TYPHIMURIUM, Strain/Indicator: TA100, Metabolic Activation: HAMSTER, LIVER, S-9, AROCLOR 1254 (10%), Method: PREINCUBATION); “inactive; negative” (Test System: AMES SALMONELLA TYPHIMURIUM, Strain/Indicator: TA100, Metabolic Activation: HAMSTER, LIVER, S-9, AROCLOR 1254 (30%), Method: PREINCUBATION); “inactive; negative” (Test System: AMES SALMONELLA TYPHIMURIUM, Strain/Indicator: TA100, Metabolic Activation: NONE, Method: PREINCUBATION); “inactive; negative” (Test System: AMES SALMONELLA TYPHIMURIUM, Strain/Indicator: TA100, Metabolic Activation: RAT, LIVER, S-9, AROCLOR 1254 (10%), Method: PREINCUBATION); “inactive; negative” (Test System: AMES SALMONELLA TYPHIMURIUM, Strain/Indicator: TA100, Metabolic Activation: RAT, LIVER, S-9, AROCLOR 1254 (30%), Method: PREINCUBATION); “inactive; negative” (Test System: AMES SALMONELLA TYPHIMURIUM, Strain/Indicator: TA1535, Metabolic Activation: HAMSTER, LIVER, S-9, AROCLOR 1254 (10%), Method: PREINCUBATION). Besides, the mutagenic call reads like this: (Test System: AMES SALMONELLA TYPHIMURIUM, Strain/Indicator: TA1535, Metabolic Activation: HAMSTER, LIVER, S-9, AROCLOR 1254 (30%), Method: PREINCUBATION) “inactive; negative”; (Test System: AMES SALMONELLA TYPHIMURIUM, Strain/Indicator: TA1535, Metabolic Activation: NONE, Method: PREINCUBATION) “inactive; negative”; (Test System: AMES SALMONELLA TYPHIMURIUM, Strain/Indicator: TA1535, Metabolic Activation: RAT, LIVER, S-9, AROCLOR 1254 (10%), Method: PREINCUBATION) “inactive; negative”; (Test System: AMES SALMONELLA TYPHIMURIUM, Strain/Indicator: TA1535, Metabolic Activation: RAT, LIVER, S-9, AROCLOR 1254 (30%), Method: PREINCUBATION) “inactive; negative”; (Test System: AMES SALMONELLA TYPHIMURIUM, Strain/Indicator: TA1537, Metabolic Activation: HAMSTER, LIVER, S-9, AROCLOR 1254 (30%), Method: PREINCUBATION) “inactive; negative”; (Test System: AMES SALMONELLA TYPHIMURIUM, Strain/Indicator: TA1537, Metabolic Activation: NONE, Method: PREINCUBATION) “inactive; negative”. Also, the mutagenic call (Test System: AMES SALMONELLA TYPHIMURIUM, Strain/Indicator: TA1537, Metabolic Activation: RAT, LIVER, S-9, AROCLOR 1254 (30%), Method: PREINCUBATION) is “inactive; negative”.
